# Reference: patent US4719297A, “Acylphosphine compounds and their use as photoinitiators” (priority 1981, dated 1988)
# Like-named read-outs stand apart in the source and are kept apart here.
# Assays:
# [1] = Photopolymerization of monomer emulsion, properties of resulting polymer dispersions (Table 5); conditions: for Fikentscher K value / Residual monomers, ethyl acrylate / Residual monomers, methyl acrylate / Solids content: 60 min exposure
# Experimental: A monomer emulsion was prepared from 50 parts of methyl acrylate, 50 parts of ethyl acrylate, 1.3 parts of a 40% strength C15 -paraffin sulfonate, 1.3 parts of an adduct of isooctylphenol with 25 units of ethylene oxide (20% strength) and 210 parts of water in a conventional mixing unit.
# This emulsion was introduced into a 1 l glass flask provided with an internal thermometer and a stirrer, and was freed from oxygen by twice evacuating the flask and gassing the emulsion with nitrogen. X parts of the photoinitiator in 6.7 parts of water were added, and the reaction vessel was then exposed for 60 minutes to light from a high pressure mercury vapor lamp of Type HQL/R 400 W from Osram, located 30 cm above the vessel. The beginning of polymerization was evident from an increase in the temperature. The amounts of photoinitiator employed and the properties of the resulting polymer dispersions are summerized in Table 5, photoinitiator 4 (cf. Table 1) being compared with photoinitiator VI (described in U.S. Pat. No. 4.257,859).
# [2] = Hardening activity of UP resin C under UV light, temperature/time curve (Table 2); conditions: 0.2% compound
# Experimental: (§1) To measure the hardening activity, the temperature curve for the unsaturated polyester resin (UP resin) was recorded during exposure to UV light. […] To avoid heat losses during the exposure to UV light, the lid was embedded in rigid expanded polyurethane foam. The UV light source used comprised 5 fluorescent tubes (TLAK 40 W/05 from Philips) side by side, at a distance of 8.5 cm from the UP resin surface.
# (§2) The hardening time HT25° C.-T.sbsb.max and the maximum hardening temperature Tmax achieved were obtained, as characteristic parameters for the hardening activity, from the recorded temperature/time curves. The hardening time is the interval in which the sample temperature increases from 25° C. to Tmax.
# (§3) The Examples and Comparative Examples were carried out using the following unsaturated polyester resins:
# Resin C was a 66% strength solution, in styrene, of an unsaturated polyester of maleic acid, o-phthalic acid and propylene 1,2-glycol in the molar ratio of 1:0.5:1.5, the solution being stabilized with 0.01% of hydroquinone.
# (§4) The hardening activity of the novel compounds 1 to 16 (cf. Table 1) was compared with the properties of the following compounds: […]
# [3] = Hardening activity of UP resin A under UV light, temperature/time curve (Table 2); conditions: 0.2% compound
# Experimental: as §1, §2, §3
# Resin A was a 65% strength solution, in styrene, of an unsaturated polyester of maleic acid, o-phthalic acid, ethylene glycol and propylene 1,2-glycol in the molar ratio of 1:2:2.3:0.70, the solution being stabilized with 0.01% of hydroquinone.
# as §4
# [4] = Hardening activity of UP resin B under UV light, temperature/time curve (Table 2); conditions: 0.2% compound
# Experimental: as §1, §2, §3
# Resin B was a 67% strength solution, in styrene, of an unsaturated polyester of maleic acid, tetrahydrophthalic acid and diethylene glycol in the molar ratio of 1:0.5:1.5, the solution being stabilized with 0.01% of hydroquinone.
# as §4
# [5] = Shelf life of UP resin A containing a photoinitiator, stored at 60° C. (Table 3); assay type: physicochemical; conditions: 0.2% initiator, dark
# Experimental: (§5) To test the shelf life, 6.6 ml of each of the UP resins A, B and C (cf. Example 5) with an initiator content of 0.2% were introduced into brown sample bottles, and the closed bottles were stored at 60° C. At intervals of about 12 hours, the bottles were turned to determine whether gel particles had formed. As a measure of the shelf life, Table 3 gives the maximum storage time at which gel particles were still not observed.
# (§6) In addition to the comparative compounds I, II and III, compound V below was also tested: V 2,4,6-trimethylbenzoyldiphenylphosphine oxide as described in U.S. Pat. No. 4,265,723.
# (§7) The numbering scheme of the compounds in Table 3 is based on that of Table 1.
# [6] = assay type: physicochemical; conditions: 80° C., closed ampoule
# Experimental: 294 parts of partially hydrolyzed polyvinyl acetate (degree of hydrolysis 82 mole %, average degree of polymerization 500) were dissolved in 294 parts of demineralized water at 90° C. by stirring the mixture for several hours. The solution was cooled to 70° C., and therafter 20 parts of 1,1,1-trimethylolpropane triacrylate, 1,0 part of 2,6-di-tert.-butyl-p-cresol and the amount of photoinitiator given in table 6, dissolved in 230 parts of 2-hydroxyethyl methacrylate, were added, with stirring. The homogeneous viscous solution was filtered, and dehydrated and degassed under reduced pressure. A 550 μm thick, nontacky layer was obtained by applying the solution onto steel sheet provided with an adhesive, and drying the layer for 24 hours at room temperature. The printing plate was pre-exposed for 2 seconds and thereafter exposed inagewise, through a negative, to light from a commercial 5 kW exposure unit for the times given in table 6.
# The thermal stability of the photosensitive solutions was determined by storing a sample in a closed ampoule at 80° C. In comparison with compound V, the novel photoinitiators improved the stability of the photosensitive mixture by a factor of 2 (see Table 6), with otherwise very similar behavior.
# [7] = Minimum exposure time for faultless reproduction of the 3% tonality on photopolymerizable printing plate (Table 7); conditions: 2 parts photoinitiator; UV about 3,300 μW/cm^2
# Experimental: 60 parts by weight of a 1:1:1 copolyamide consisting of PA-6, PA-6.6 and PA-6.13, 30 parts by weight of ethylene glycol bis-(N-methylolacrylamide) ether, 10 parts by weight of benzenesulfonic acid N-(n-butyl)-amide, 150 parts by weight of methanol, 20 parts by weight of water, 0.02 part by weight of a chromium complex dye (CI No. 12,195), 0.3 part by weight of potassium N-nitrosocyclohexylhydroxylamine and 2 parts by weight of the photoinitiator given in Table 7 were dissolved at about 70° C. The photopolymerizable material was brought to a solids content of about 65% by distilling off part of the solvent and was then cast, at 60° C., on to a strip of steel sheet provided with an adhesive, and drying was effected in a drying oven for about 2 hours at 80° C. The resulting photopolymerizable printing plate contained a 0.5 mm thick layer with a solids content of about 95%.
# Using a test negative which had, inter alia, 54 screen lines, per centimeter, of 3% tonality, the plate was exposed to a UV light intensity of about 3,300 μW/cm^2 on a flat-plate exposure unit equipped with superactinic fluorescent tubes. The unexposed parts of the plate which were protected from the UV light by the opaque image elements of the negative were then washed out in a spray washer for 5 minutes at 30° C. and under a spray pressure of 5 bar, using an ethanol/water mixture containing 80% of ethanol. The plate was thereafter dried for 6 minutes at 110° C. The minimum exposure time required for faultless reproduction of the 3% tonality was measured, and the results for various photoinitiators are summarized in Table 7.
# [8] = Shelf life of resins containing the compounds, overall comparison; assay type: physicochemical; conditions: Table 3, in words
# Experimental: as §5, §6
# [9] = Hardening rate of UV-exposed finish by Konig pendulum method (DIN 53,157) (Table 4); conditions: for Damping of pendulum: 2 parts photoinitiator
# Experimental: An unsaturated polyester was prepared by esterifying 143 parts of tetrahydrophthalic anhydride and 175 parts of maleic anhydride with 260 parts of diethylene glycol. 0.01% of hydroquinone was added, and thereafter a 64% strength solution of the polyester in styrene was prepared (solution D).
# For the UV hardening experiments, 10 parts of styrene and 2 parts of the photoinitiator were added to 100 parts of solution D, and the finish was applied to photographic paper on a hardboard base by means of a film spreader (slotwidth 200 μm)
# The film was dried in air for about 1 minute and then exposed to light from a 30 watt high pressure mercury vapor lamp of 1 cm arc length (Philips HTQ 7) located 15 cm above the object.
# The hardening rate was determined by the Konig pendulum method (DIN 53,157), and is given in Table 4 together with the color measurements carried out on the hardened films.
# The numbering scheme for the photoinitiators is based on that of Table 1 and Example 6.
# [10] = Hardening activity in UP resins, overall comparison
# Experimental: as §1, §2, §3, §4
# [11] = Shelf life of UP resin C containing a photoinitiator, stored at 60° C. (Table 3); assay type: physicochemical; conditions: 0.2% initiator, dark
# Experimental: as §5, §6, §7
# [12] = Shelf life of UP resin B containing a photoinitiator, stored at 60° C. (Table 3); assay type: physicochemical; conditions: 0.2% initiator, dark
# Experimental: as §5, §6, §7
Structure (SMILES),hardening time HT 25°-Tmax [2],maximum hardening temperature Tmax [2] [°C],hardening time HT 25°-Tmax [3],maximum hardening temperature Tmax [3] [°C],hardening time HT 25°-Tmax [4],maximum hardening temperature Tmax [4] [°C],Shelf life [5] [h],Minimum exposure time required for reproducing the 3% tonality [7] [s],Damping of pendulum ([9]; exposure time 5 s),Damping of pendulum ([9]; exposure time 10 s),Damping of pendulum ([9]; exposure time 15 s),Damping of pendulum ([9]; exposure time 20 s),Damping of pendulum ([9]; exposure time 25 s),Shelf life [11] [h],Shelf life [12] [h],also measured
"Cc1cc(C)c(C(=O)P(=O)([O-])c2ccccc2)c(C)c1.[Na+] [Compound 4, Sodium 2,4,6-trimethylbenzoylphenylphosphinate]",5/23,122,5/53,117,4/37,125,190,115,–,–,–,–,–,–,–,"Fikentscher K value ([1]; 0.04 parts X employed): 156.8; Residual monomers, ethyl acrylate ([1]; 0.04 parts X employed): 0.019%; Residual monomers, methyl acrylate ([1]; 0.04 parts X employed): 0.051%; Solids content ([1]; 0.04 parts X employed): 31.3%; Fikentscher K value ([1]; 1.7 parts X employed): 146.6; Residual monomers, ethyl acrylate ([1]; 1.7 parts X employed): < 0.005%; Residual monomers, methyl acrylate ([1]; 1.7 parts X employed): 0.005%; Solids content ([1]; 1.7 parts X employed): 31.4%; activity compared with photoinitiator VI ([1]; same K value of dispersions, in words): higher activity; content of residual monomers compared with photoinitiator VI ([1]; same starting concentration, in words): substantially lower content of residual monomers; initiation of photopolymerization at very low starting concentrations ([1]; very low starting concentrations, in words): permits photopolymerization even at very low starting concentrations; Stability ([6]; 6 parts of compound): 34 h; shelf life of resins compared with compounds II, III and V [8]: substantially superior; shelf life of resins compared with resins containing I [8]: not significantly different"
"Cc1cc(C)c(C(=O)P(=O)(O)c2ccccc2)c(C)c1 [Compound 12, Methyldiethanolammonium 2,4,6-trimethylbenzoylphenylphosphinate]",5/23,123,6/15,116,5/08,129,–,–,71,92,112,122,130,–,–,"Stability ([6]; 7 parts of compound): 28 h; hardening activity compared with compound V ([9]; Table 4, in words): substantially more active hardener"
"COP(=O)(C(=O)c1c(C)cc(C)cc1C)c1ccccc1 (centres unmarked) [I, methyl 2,4,6-trimethybenzoylphenylphosphinate, reference compound]",6/53,123,7/45,114,5/23,127,180,–,–,–,–,–,–,180,155,"hardening activity compared with the novel compounds ([10]; see Example 5, in words): substantially less active hardener"
"COP(=O)([O-])C(C)=O.[Na+] [IV, monosodium monomethylacetylphosphonate, reference compound]",–,–,13/15,30,–,–,–,–,–,–,–,–,–,–,–,"hardening outcome (footnote to Tmax) [3]: not hardened; suitability for photohardening ([10]; Table 2, in words): unsuitable for photohardening"
"Cc1cc(C)c(C(=O)P(=O)(c2ccccc2)c2ccccc2)c(C)c1 [V, 2,4,6-trimethylbenzoyldiphenylphosphine oxide, reference compound]",–,–,–,–,–,–,140,190,43,66,84,102,112,120,140,Stability ([6]; 4 parts of compound): 15 h
